Assay results taken from ChEMBL document CHEMBL1201862, “PubChem BioAssay data set” (2004).
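Each compound was tested at five concentrations against cells in 96-well plates for 48 hours. Abbreviation: GI50, concentration required for 50% inhibition of growth.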 Active and inactive are the calls of the source. No stated cut-off is given here; in the data, active = GI50 up to about 1.1 µM and inactive = higher.

Experiments:
Assay in all cases: inhibition of tumour cell growth, NCI panel, 48 h
[1] = test system: IGROV-1
[2] = test system: SN12C
[3] = test system: A498
[4] = test system: KM-20L2
[5] = test system: 786-0
[6] = test system: A549
[7] = test system: HL-60
[8] = test system: HCT-15
[9] = test system: CAKI-1
[10] = test system: SW-620
[11] = test system: SK-MEL-5
[12] = test system: SNB-19
[13] = test system: SK-MEL-28
[14] = test system: SF-268
[15] = test system: SK-MEL-2
[16] = test system: T47D
[17] = test system: UO-31
[18] = test system: NCI-H226
[19] = test system: MDA-N
[20] = test system: SR

Row | Structure (SMILES) | GI50 [1] | GI50 [2] | GI50 [3] | GI50 [4] | GI50 [5] | GI50 [6] | GI50 [7] | GI50 [8] [µM] | GI50 [9] | GI50 [10] | GI50 [11] | GI50 [12] | GI50 [13] | GI50 [14] | GI50 [15] | GI50 [16] | GI50 [17] | GI50 [18] | GI50 [19] | GI50 [20]
1 | Oc1ccc2occ3c2c1CCC3 | > 100 µM (inactive) | > 100 µM (inactive) | > 100 µM (inactive) | > 100 µM (inactive) | > 100 µM (inactive) | > 100 µM (inactive) | 44.4 µM (inactive) | > 100 | > 100 µM (inactive) | > 100 µM (inactive) | > 100 µM (inactive) | > 100 µM (inactive) | > 100 µM (inactive) |  |  |  |  |  |  | 
2 | CC[N+]1(C)CCC(O)(c2ccc(Cl)c(Cl)c2)C(C(=O)c2ccc(Cl)c(Cl)c2)C1 (stereo not given) | > 10 µM (inactive) | > 10 µM (inactive) | > 10 µM (inactive) |  | > 10 µM (inactive) | > 10 µM (inactive) | > 10 µM (inactive) | > 10 | > 10 µM (inactive) | > 10 µM (inactive) | > 10 µM (inactive) | > 10 µM (inactive) | > 10 µM (inactive) | > 10 µM (inactive) | > 10 µM (inactive) | > 10 µM (inactive) | > 10 µM (inactive) | > 10 µM (inactive) | > 10 µM (inactive) | > 10 µM (inactive)
3 | O=[N+]([O-])c1cc(Cl)cc2c1nc(NCCO)c1ccccc12 | 15.2 µM (inactive) | 6.17 µM (inactive) | 10.3 µM (inactive) |  | 6.81 µM (inactive) | 2.95 µM (inactive) | 3.5 µM (inactive) | 4.36 | 16.5 µM (inactive) | 4.5 µM (inactive) | 1.35 µM (inactive) | 16.1 µM (inactive) | 39.5 µM (inactive) | 23.8 µM (inactive) | 10.5 µM (inactive) | 20.3 µM (inactive) | 24.1 µM (inactive) | 13.5 µM (inactive) | 4.62 µM (inactive) | 0.653 µM (active)
4 | CN(CCC(=O)O)C1=Nc2ccc(Cl)cc2C(c2ccccc2)=[N+]([O-])C1 | > 100 µM (inactive) | > 100 µM (inactive) | > 100 µM (inactive) |  | > 100 µM (inactive) | > 100 µM (inactive) | > 100 µM (inactive) | > 100 | 78.5 µM (inactive) | > 100 µM (inactive) | > 100 µM (inactive) | > 100 µM (inactive) | > 100 µM (inactive) | > 100 µM (inactive) | > 100 µM (inactive) | > 100 µM (inactive) | > 100 µM (inactive) | > 100 µM (inactive) | > 100 µM (inactive) | > 100 µM (inactive)
5 | O=C1c2cccc3cccc(c23)C(=O)N1CCCNCCCNCCCCNCCCNCCCN1C(=O)c2cccc3cccc(c23)C1=O | 1.96 µM (inactive) | 3.44 µM (inactive) | 6.38 µM (inactive) |  | 1.07 µM (active) | 2.67 µM (inactive) | 0.27 µM (active) | 12.8 | 12.9 µM (inactive) | 2.03 µM (inactive) | 5.93 µM (inactive) | 2.28 µM (inactive) | 2.46 µM (inactive) | 1.93 µM (inactive) | 4.01 µM (inactive) | 5.26 µM (inactive) | 13.1 µM (inactive) | 4.46 µM (inactive) | 2.36 µM (inactive) | 0.929 µM (active)
6 | O=C(O)c1c(-c2nccc3ccccc23)[nH]c(-c2ccccc2)c1S(=O)(=O)O | > 100 µM (inactive) | > 100 µM (inactive) | > 100 µM (inactive) |  | > 100 µM (inactive) | > 100 µM (inactive) | 41.8 µM (inactive) | > 100 | > 100 µM (inactive) | > 100 µM (inactive) | > 100 µM (inactive) | > 100 µM (inactive) | > 100 µM (inactive) | > 100 µM (inactive) | > 100 µM (inactive) | > 100 µM (inactive) | > 100 µM (inactive) | > 100 µM (inactive) | > 100 µM (inactive) | > 100 µM (inactive)
7 | N#C/C(=C1C=C(Br)/C(=N\O)C=C\1Cl)c1cccc2ccccc12 | 6.24 µM (inactive) | 8.49 µM (inactive) | 9.02 µM (inactive) |  | 3.34 µM (inactive) | 9.84 µM (inactive) | 2.3 µM (inactive) | 4.73 | 3.48 µM (inactive) | 3.53 µM (inactive) | 3.42 µM (inactive) | 10.5 µM (inactive) | 6.3 µM (inactive) | 4.47 µM (inactive) | 2.48 µM (inactive) | 2.38 µM (inactive) | 11 µM (inactive) | 2.17 µM (inactive) | 1.61 µM (inactive) | 3.11 µM (inactive)
8 | CCOC(=O)CCC(NC(=O)c1ccc(OCc2ccc3nc(-c4ccccc4)c(Cl)nc3c2)cc1)C(=O)OCC (stereo not given) | 22.1 µM (inactive) | > 100 µM (inactive) | 36.1 µM (inactive) |  | 16.6 µM (inactive) | 19.5 µM (inactive) | 7.29 µM (inactive) | > 31.6 | > 69 µM (inactive) | > 31.6 µM (inactive) | > 31.6 µM (inactive) | 17.3 µM (inactive) | > 31.6 µM (inactive) | 15 µM (inactive) | 12.4 µM (inactive) | 16.6 µM (inactive) | > 31.6 µM (inactive) | 19.2 µM (inactive) | > 100 µM (inactive) | 12.9 µM (inactive)
9 | CC(C)(C)OC(=O)CN1CCNCCNCC1 | > 100 µM (inactive) | > 100 µM (inactive) | > 100 µM (inactive) |  | > 100 µM (inactive) | > 100 µM (inactive) | 9.55 µM (inactive) | > 100 | > 100 µM (inactive) | > 100 µM (inactive) | > 100 µM (inactive) | > 100 µM (inactive) | > 100 µM (inactive) | > 100 µM (inactive) | > 100 µM (inactive) | > 100 µM (inactive) | > 100 µM (inactive) | > 100 µM (inactive) | > 100 µM (inactive) | > 100 µM (inactive)
10 | CCCOC(=O)c1cc(O)c(O)c(O)c1 [PROPYL GALLATE] | 31.3 µM (inactive) | 22.4 µM (inactive) | > 100 µM (inactive) |  | 41.4 µM (inactive) | 27.2 µM (inactive) | > 100 µM (inactive) | 20.7 | > 100 µM (inactive) | 51.3 µM (inactive) | 59.3 µM (inactive) | 57.4 µM (inactive) | 43.8 µM (inactive) | 27.7 µM (inactive) | 28.1 µM (inactive) | 62.1 µM (inactive) | 8.95 µM (inactive) | 17.7 µM (inactive) | 14.7 µM (inactive) | > 100 µM (inactive)
11 | CCN(CC)N1C(=O)[N-][N+](CC)(CC)C1=O | > 100 µM (inactive) | > 100 µM (inactive) | > 100 µM (inactive) |  | > 100 µM (inactive) | > 100 µM (inactive) | > 100 µM (inactive) | > 100 | > 100 µM (inactive) | > 100 µM (inactive) | > 100 µM (inactive) | > 100 µM (inactive) | > 100 µM (inactive) | > 100 µM (inactive) | > 100 µM (inactive) | > 100 µM (inactive) | > 100 µM (inactive) | > 100 µM (inactive) | > 100 µM (inactive) | > 100 µM (inactive)
12 | CCc1nc(N)nc(N)c1-c1ccc(Cl)c(/N=C/N(C)C)c1 | 27.1 µM (inactive) | 91.4 µM (inactive) | 86.9 µM (inactive) |  | 22.8 µM (inactive) | 15.3 µM (inactive) | > 39.7 µM (inactive) | 10.4 | 53.8 µM (inactive) | 22.3 µM (inactive) | 29.9 µM (inactive) | 58.9 µM (inactive) | > 100 µM (inactive) | 62.1 µM (inactive) | > 100 µM (inactive) | 77.3 µM (inactive) | > 100 µM (inactive) | > 100 µM (inactive) | 45.9 µM (inactive) | 31.1 µM (inactive)
13 | COc1ccccc1/C=C(\NC(=O)c1ccccc1)c1nc2ccccc2[nH]1 | 32.8 µM (inactive) | 48.8 µM (inactive) | 56 µM (inactive) | 59.8 µM (inactive) | 40.1 µM (inactive) | 46.8 µM (inactive) |  | > 100 | 87.3 µM (inactive) | 47 µM (inactive) | 23.3 µM (inactive) | 34 µM (inactive) | 36.9 µM (inactive) | 37.3 µM (inactive) | 27.4 µM (inactive) |  | 63.8 µM (inactive) |  |  | 
14 | CCOC(=O)C(SCCO)C(C(=O)OCC)n1cnc2c(=O)[nH]c(NC(C)=O)nc21 (stereo not given) | > 100 µM (inactive) | > 100 µM (inactive) | > 100 µM (inactive) |  | > 100 µM (inactive) | > 100 µM (inactive) | > 100 µM (inactive) | > 100 | > 100 µM (inactive) | > 100 µM (inactive) | > 100 µM (inactive) | > 100 µM (inactive) | > 100 µM (inactive) | > 100 µM (inactive) | > 100 µM (inactive) | > 100 µM (inactive) | > 100 µM (inactive) | > 100 µM (inactive) | > 100 µM (inactive) | 21.4 µM (inactive)
15 | O=C(Nc1ccn(C2CCC(CO)O2)c(=O)n1)c1ccccc1 (stereo not given) | > 100 µM (inactive) | > 100 µM (inactive) | 50.4 µM (inactive) |  | > 100 µM (inactive) | > 100 µM (inactive) | > 100 µM (inactive) | > 100 | > 100 µM (inactive) | > 100 µM (inactive) | > 100 µM (inactive) | > 100 µM (inactive) | > 100 µM (inactive) | > 100 µM (inactive) | > 100 µM (inactive) | > 100 µM (inactive) | > 100 µM (inactive) | > 100 µM (inactive) | > 100 µM (inactive) | > 100 µM (inactive)
